US20040106685A1, “Method of preventing and/or treating asthma using PBPB” (COUNCIL OF SCIENTIFIC & INDUSTRIAL RESEARCH, priority 2002, published 2004)

Experiments:
Assay type in all cases: in vivo, BALB/c male mice
Ova-specific IgE = assay: Serum ova-specific IgE levels by Elisa
Experimental: (§1) In another embodiment of the present invention, wherein after testing the compound for the preventive as well as for therapeutic values in intact conscious mice, mice were sacrificed for collecting the blood and bronchoalveolar lavage (bat) fluid to measure the levels of IgE, cytokines 11-4, IL-5 and IFN-y and homophile. Ovalbumin specific IgE levels m the sera and the levels of IL-4, IL-5 and IFN-y in the BAL fluid were measured by Elisa kits. The prevalence of eosinophils was determined in BAL fluid by flow cytometry.
(§2) BALB/c male mice, eight-ten weeks old, weighing 18-22 grams were acclimatized for one week under the laboratory conditions. Mice were sensitized by injecting intraperitoneally 0.2 ml of saline containing 10 micrograms ovalbumin (ova) (sigma, USA) adsorbed on 2 mg aluminum hydroxide gel on days 0, 7 and 14 followed by aerosol inhalation for 5 consecutive days, from day 19 to 23 with 2% ova (in saline w/v) for 30 minutes daily. Aerosol challenge was performed by placing mice in Plexiglas chamber (20×20×10 cm^3) and ova or saline alone was aerosolized using a nebulizer (devilbiss, model 645, USA) at an airflow rate of 7 litre/minute, sham-sensitized mice received 0.2 ml of saline containing only 2 mg al(oh)3 on days, 0, 7 and 14 followed by inhalation of aerosol of saline without ova for 5 consecutive days.
(§3) The compound PBPB (sigma, USA) was dissolved in absolute alcohol (10 mg/ml). PBPB (20ul by volume) was given orally to each mouse. […] Initial measurements of specific airway conductance and airway reactivity of all the animals were carried out before starting the experiment ovalbumin induced airway constriction and airway reactivity were measured after sensitization protocol was over the measurements were done as described below (example 3,4 and 5). […]
Serum IgE levels were measured in all the groups of mice by Elisa (FIG. 7). Ova-specific IgE levels were measured by enzyme linked immuno sorbent assay (Elisa). […]

IFN-gamma, IL-4 and IL-5 = assay: Cytokines IFN-gamma, IL-4 and IL-5 in BAL fluid by Elisa kits; settings: for IL-4 in BAL fluid / IL-5 in BAL fluid / IFN-γ in BAL fluid: mean SEM, n = 4; for IL-4 in BAL fluid: sensitized 143.0 ± 3.0; for IL-5 in BAL fluid: sensitized 158.7 ± 22.5; for IFN-γ in BAL fluid: sensitized 162.0 ± 45.2; for IFN-γ:IL-4 ratio in BAL fluid: sensitized 1.1
Experimental: as §1, §2
(§4) The compound PBPB (sigma, USA) was dissolved in absolute alcohol (10 mg/ml). PBPB (20ul by volume) was given orally to each mouse. To evaluate the effect of PBPB on sensitization and the development of impaired airway sensitivity (preventive effect, FIG. 1a), five groups (six mice in each) of mice were used. One group was sham-sensitized control and another group was kept as sensitized control. The remaining three groups were given orally three different concentrations of PBPB (0.1, and 10 mg/kg body weight) daily starting from first to the last day of the sensitization the sham-sensitized and sensitized control mice were given only vehicle (20 ul alcohol) in a similar fashion. Initial measurements of specific airway conductance and airway reactivity of all the animals were carried out before starting the experiment ovalbumin induced airway constriction and airway reactivity were measured after sensitization protocol was over the measurements were done as described below (example 3,4 and 5).
(§5) To examine the therapeutic effect of PBPB on sensitized mice (therapeutic effect, FIG. ib), mice were sensitized as before without PBPB treatment and airway constriction to ova and airway reactivity to methacholine were measured as described below animals showing at least 40% fall in specific airway conductance to ova aerosol challenge were selected for this study the sensitized mice were randomly divided into 4 groups of 6 mice in each group three groups of mice were given daily three different concentrations of PBPB in 20 ul of alcohol adjusted to contain PBPB in a dose of 0.1, and 10 mg/kg body weight respectively for week fourth group was fed only 20 ul alcohol for one week to be used as sensitized control airway constriction and airway reactivity were again measured thereafter.
The cytokines IFN-gamma, IL-4 and IL-5 were measured in the BAL fluid by enzyme-linked ImmunoSorbent assay (Elisa) kits (BD pharmingen, USA) as per the manufacturer's protocol.

[1] = system: mouse model of asthma (ova sensitized mice); assay: Airway reactivity to methacholine (MCh PD35) in sensitized mice
Experimental: as §2
as §4, with “The remaining three groups were given orally three different concentrations of PBPB (0.1, and 10 mg/kg body weight) daily starting from first to the last day of the sensitization the sham-sensitized and sensitized control mice were given only vehicle (20 ul alcohol) in a similar fashion.” left out
as §5
Airway calibre was measured in the term of specific airway conductance (SGaw). […] The change in the box pressure in response to breathing of the housed mouse was determined with a transducer (validyne mp 45+2 cmh20) and carrier amplifier (validyne model CD 15 carrier demodulator) that were connected to the x-channel of an oscilloscope Tektronix, model 6116, USA). […]

eosinophils in BAL fluid = assay: Eosinophils in BAL fluid by flow cytometry
Experimental: as §1, §2, §3
The levels of eosinophils in BAL fluid were detected by flowcytometry (facsvantage, Becton Dickinson, USA) using the method described by bedner et al (1999). The cells were gated on the basis of the size and fluorescence (FSC versus FL 1) and the percentage of the gated cells was determined by cell quest software. […]

[2] = system: mouse model of asthma (ova sensitized mice); assay: Ova-induced airway constriction (fall of SGaw) in sensitized mice, dual-chamber whole body plethysmography
Experimental: as §2, §4, §5
Airway calibre was measured in the term of specific airway conductance (SGaw). SGaw is a measure of the airway caliber and was estimated using a dual-chamber whole body plethysmograph (Agrawal, 1981). The dual-chamber whole body plethysmograph was designed in our laboratory to suit the size of mouse (FIG. 2). The change in the box pressure in response to breathing of the housed mouse was determined with a transducer (validyne mp 45+2 cmh20) and carrier amplifier (validyne model CD 15 carrier demodulator) that were connected to the x-channel of an oscilloscope Tektronix, model 6116, USA). […]
Animals were acclimatized in the body box in the beginning of the study and at the time of recording the loop, each individual mouse was housed for 10 minutes to set the basal loop correctly. Values of the slopes were recorded on getting at least three similar loops. […]

[3] = PBPB 1 mg/kg body weight after sensitization
[4] = PBPB 1 mg/kg body weight during sensitization

`O=C(CBr)c1ccc(Br)cc1` [PBPB, parabromophenacyl bromide] was tested. Which “serum IgE levels, effect of higher dose” value (Ova-specific IgE; preventive: 10 mg of PBPB/kg body weight during sensitization) did it give?
Its value is “did not show additional effect”.

And the “mean serum IgE level lower compared to sensitized animals” value (Ova-specific IgE; preventive: oral 1 mg/kg body weight during sensitization, sensitized mice 384±22.8 ng/ml)?
The value was 40%.

And the “fall in serum IgE levels compared to vehicle treated sensitized mice” value (Ova-specific IgE; therapeutic: 1 mg/kg body weight fed for one week to already sensitized mice, p<0.05)?
The value was 47%.

And the “IL-4 in BAL fluid” value (IFN-gamma, IL-4 and IL-5; [3])?
Its value is 42.4 ± 4.9 pg/mL.

And the “IL-5 in BAL fluid” value (IFN-gamma, IL-4 and IL-5; [3])?
The value was 53.4 ± 2.2 pg/mL.

What about the “IFN-γ in BAL fluid” value (IFN-gamma, IL-4 and IL-5; [3]) of the same compound?
The value was 425.1 ± 54.0 pg/mL.

And the “IFN-γ:IL-4 ratio in BAL fluid” value (IFN-gamma, IL-4 and IL-5; [3])?
Its value is 10.

What about the “IL-4 in BAL fluid” value (IFN-gamma, IL-4 and IL-5; [4]) of the same compound?
Its value is 91.0 ± 13.2 pg/mL.

What about the “IL-5 in BAL fluid” value (IFN-gamma, IL-4 and IL-5; [4]) of the same compound?
The value was 75.1 ± 7.4 pg/mL.

What about the “IFN-γ in BAL fluid” value (IFN-gamma, IL-4 and IL-5; [4]) of the same compound?
The value was 402 ± 14.4 pg/mL.

And the “IFN-γ:IL-4 ratio in BAL fluid” value (IFN-gamma, IL-4 and IL-5; [4])?
Its value is 4.4.

What about the “MCh PD35, of its initial values” ([1]; preventive: treatment during sensitization, 10 mg/kg body weight) of the same compound?
Its value is 115%.

What about the “MCh PD35 recovery, of its initial levels” value ([1]; preventive: treatment during sensitization, dose 'mg/kg body weight' (figure missing), 24 hours after last ova challenge) of the same compound?
Its value is 93%.

And the “MCh PD35 recovered, of the basal value” ([1]; therapeutic: oral to sensitized mice already having airway hyper reactivity, 1 mg/kg body weight)?
Its value is “over 81%”.

And the “MCh PD35 recovery, of the basal value” ([1]; therapeutic: oral to sensitized mice already having airway hyper reactivity, 10 mg/kg body weight)?
Its value is 94%.

And the effective dose (eosinophils in BAL fluid; administration to mice during and after sensitization, inhibition of inflammation (eosinophils in BAL fluid))?
Its effective dose is 1 mg/kg body weight.

And the “levels of eosinophils in BAL fluid” value (eosinophils in BAL fluid; preventive: oral 1 mg/kg body weight during sensitization)?
Its value is “prevented the rise in the eosinophils levels”.

What about the “levels of eosinophils in BAL fluid” value (eosinophils in BAL fluid; therapeutic: 1 mg/kg body weight in already sensitized mice, p<0.01 vs vehicle treated sensitized mice) of the same compound?
Its value is “reduced the levels of eosinophils significantly”.

What about the “fall of SGaw level from basal level after ova challenge” value ([2]; preventive: oral 0.1 mg PBPB/kg body weight during sensitization, sensitized control fall 48%) of the same compound?
Its value is 17%.

And the “fall of SGaw after ova challenge, effect of further dose increase” value ([2]; preventive: oral 'lo mg/kg body weight' during sensitization)?
The value was “did not show any additional effect”.

What about the “fall of SGaw from basal levels after ova challenge” value ([2]; preventive: oral 'mg PBPB/kg body weight' (dose figure missing) during sensitization, sensitized control fall 48%) of the same compound?
The value was 4%.

And the “SGaw levels recovered, of basal SGaw levels” value ([2]; therapeutic: oral for one week to already sensitized mice, 10 mg PBPB/kg body weight)?
The value was 96%.

And the “SGaw levels recovered, of normal basal levels” value ([2]; therapeutic: oral for one week to already sensitized mice, dose 'mg/kg body weight' (figure missing))?
The value was 86%.
